Data on 17 compounds can be found in patent US11319299B2, “Substituted carboxamides as inhibitors of WDR5 protein-protein binding” (PROPELLON THERAPEUTICS INC., priority 2016, dated 2022).

Bounds are passed on as bounds.

One test addresses WDR5 (Homo sapiens (Human), UniProt P61964). Put plainly: Surface Plasmon Resonance (SPR) assay, KD and residence time. Format: binding. The settings on record: surface plasmon resonance (SPR) assay; read-out: WDR5 binding affinity (KD). Background: SPR reads the build-up and loss of mass on a sensor chip optically.
On to `C[C@@H]1CN(c2cc(F)c(C3=CCN(CC4CC4)CC3)cc2NC(=O)c2c[nH]c(=O)cc2C(F)(F)F)C[C@H](C)N1C` [Example 151, N-[5-[1-(cyclopropylmethyl)-3,6-dihydro-2H-pyridin-4-yl]-4-fluoro-2-[(3R,5S)-3,4,5-trimethylpiperazin-1-yl]phenyl]-6-oxo-4-(trifluoromethyl)-1H-pyridine-3-carboxamide], for which the Kd turned out to be 7.46 nM. The same measure, in the same setting: as for `CN(C)[C@@H]1CCN(c2cc(F)c(-c3ccc(N4CCOCC4)cc3)cc2NC(=O)c2cn[nH]c2)C1` [Example 177, N-[4-fluoro-5-(4-morpholin-4-ylphenyl)-2-[(3R)-3-(dimethylamino)pyrrolidin-1-yl]phenyl]-1H-pyrazole-4-carboxamide], the figure is greater than 200 nM; as for `COc1ccc(-c2cc(NC(=O)c3c[nH]c(=O)cc3C(F)(F)F)c(N3C[C@@H](C)N(C)[C@@H](C)C3)cc2F)cc1` [Example 112, N-[4-fluoro-5-(4-methoxyphenyl)-2-[(3R,5S)-3,4,5-trimethylpiperazin-1-yl]phenyl]-6-oxo-4-(trifluoromethyl)-1H-pyridine-3-carboxamide], 2.44 nM; as for `C[C@@H]1CN(c2cc(F)c(-c3ccc(N4CCCC4)cc3)cc2NC(=O)c2c[nH]c(=O)cc2C(F)(F)F)C[C@H](C)N1C` [Example 114, N-[4-fluoro-5-(4-pyrrolidin-1-ylphenyl)-2-[(3R,5S)-3,4,5-trimethylpiperazin-1-yl]phenyl]-6-oxo-4-(trifluoromethyl)-1H-pyridine-3-carboxamide], 4.06 nM.

Regarding `COc1cc(-c2cc(NC(=O)c3c[nH]c(=O)cc3C(F)(F)F)c(N3C[C@@H](C)N(C)[C@@H](C)C3)cc2F)cc(C(F)(F)F)n1` [Example 134, N-[4-fluoro-5-[2-methoxy-6-(trifluoromethyl)pyridin-4-yl]-2-[(3R,5S)-3,4,5-trimethylpiperazin-1-yl]phenyl]-6-oxo-4-(trifluoromethyl)-1H-pyridine-3-carboxamide], the equilibrium dissociation constant (Kd) was found to be 1.01 nM. On to `C[C@@H]1CN(c2cc(F)c(-c3cnc(N4CCOCC4)nc3)cc2NC(=O)c2c(F)cccc2C(F)(F)F)C[C@H](C)N1C` [Example 297, 2-fluoro-N-[4-fluoro-5-(2-morpholin-4-ylpyrimidin-5-yl)-2-[(3R,5S)-3,4,5-trimethylpiperazin-1-yl]phenyl]-6-(trifluoromethyl)benzamide], for which the Kd came out at 22.9 nM.

In the case of `Cc1cc(-c2cc(NC(=O)c3c[nH]c(=O)cc3C(F)(F)F)c(N3C[C@@H](C)N(C)[C@@H](C)C3)cc2F)cnc1C#N` [Example 132, N-[5-(6-cyano-5-methylpyridin-3-yl)-4-fluoro-2-[(3R,5S)-3,4,5-trimethylpiperazin-1-yl]phenyl]-6-oxo-4-(trifluoromethyl)-1H-pyridine-3-carboxamide], the Kd was 1.4 nM. In the case of `CC1CN(c2cc(F)c(-c3cnc(N(C)C4CCOCC4)nc3)cc2NC(=O)c2c[nH]c(=O)cc2C(F)(F)F)CCN1C` (stereo in doubt) [Example 370, N-[4-fluoro-5-[2-[methyl(oxan-4-yl)amino]pyrimidin-5-yl]-2-[(3R)-3,4-dimethylpiperazin-1-yl]phenyl]-6-oxo-4-(trifluoromethyl)-1H-pyridine-3-carboxamide], the equilibrium dissociation constant (Kd) worked out at 0.866 nM.

As to `C[C@@H]1CN(c2cc(F)c(-c3ccnc(OCC4CCC4)c3)cc2NC(=O)c2c[nH]c(=O)cc2C(F)(F)F)C[C@H](C)N1C` [Example 292, N-[5-[2-(cyclobutylmethoxy)pyridin-4-yl]-4-fluoro-2-[(3R,5S)-3,4,5-trimethylpiperazin-1-yl]phenyl]-6-oxo-4-(trifluoromethyl)-1H-pyridine-3-carboxamide], the dissociation constant (Kd) was 4.32 nM.

Consider `C[C@@H]1CN(c2cc(F)c(-c3cnc(N4CCOCC4)nc3)cc2NC(=O)c2scnc2C(F)(F)F)C[C@H](C)N1C` [Example 188, N-[4-fluoro-5-(2-morpholin-4-ylpyrimidin-5-yl)-2-[(3R,5S)-3,4,5-trimethylpiperazin-1-yl]phenyl]-4-(trifluoromethyl)-1,3-thiazole-5-carboxamide], for which the Kd amounted to 93.2 nM.

As to `CN(C)[C@@H]1CCN(c2cc(F)c(-c3ccc(N4CCOCC4)nc3)cc2NC(=O)c2c[nH]c(=O)cc2C(F)(F)F)C1` [Example 234, N-[4-fluoro-5-(6-morpholin-4-ylpyridin-3-yl)-2-[(3R)-3-(dimethylamino)pyrrolidin-1-yl]phenyl]-6-oxo-4-(trifluoromethyl)-1H-pyridine-3-carboxamide], the dissociation constant Kd was 1.86 nM.

Staying with this test, now noted: surface plasmon resonance (SPR); read-out: WDR5 binding affinity (KD).
As to `C[C@@H]1CN(c2cc(F)c(-c3ccc(C(=O)NC4CCC(F)(F)CC4)c(F)c3)cc2NC(=O)c2c[nH]c(=O)cc2C(F)(F)F)C[C@H](C)N1C` [Example 734, N-[5-[4-[(4,4-difluorocyclohexyl)carbamoyl]-3-fluorophenyl]-4-fluoro-2-[(3R,5S)-3,4,5-trimethylpiperazin-1-yl]phenyl]-6-oxo-4-(trifluoromethyl)-1H-pyridine-3-carboxamide], the dissociation constant (Kd) worked out at 4.13 nM. Same read-out and setting: as for `C[C@@H]1CN(c2cc(F)c(C3=CCCN(c4ncc(C#N)s4)CC3)cc2NC(=O)c2c[nH]c(=O)cc2C(F)F)C[C@H](C)N1C` [Example 731, N-[5-[1-(5-cyano-1,3-thiazol-2-yl)-2,3,6,7-tetrahydroazepin-4-yl]-4-fluoro-2-[(3R,5S)-3,4,5-trimethylpiperazin-1-yl]phenyl]-4-(difluoromethyl)-6-oxo-1H-pyridine-3-carboxamide], the figure is 7.61 nM. The same measure, in the same setting: the result for `C[C@@H]1COCCN1c1ncc(-c2cc(NC(=O)c3ccc(F)cc3C(F)(F)F)c(N3CCN(C)[C@@H](C)C3)cc2F)cn1` [Example 737, 4-fluoro-N-[4-fluoro-2-[(3S)-3,4-dimethylpiperazin-1-yl]-5-[2-[(3R)-3-methylmorpholin-4-yl]pyrimidin-5-yl]phenyl]-2-(trifluoromethyl)benzamide] reads 4.61 nM.

Consider `C[C@@H]1CN(c2cc(F)c(-c3cnc(N4CCC(C)(O)CC4)nc3)cc2NC(=O)c2c[nH]c(=O)cc2C(F)(F)F)C[C@H](C)N1C` [Example 425, N-[4-fluoro-5-[2-(4-hydroxy-4-methylpiperidin-1-yl)pyrimidin-5-yl]-2-[(3R,5S)-3,4,5-trimethylpiperazin-1-yl]phenyl]-6-oxo-4-(trifluoromethyl)-1H-pyridine-3-carboxamide], for which the Kd came out at 1.06 nM. Consider `C[C@@H]1CN(c2cc(F)c(-c3ncc(CN4CCOCC4)s3)cc2NC(=O)c2c[nH]c(=O)cc2C(F)(F)F)C[C@H](C)N1C` [Example 751, N-[4-fluoro-5-[5-(morpholin-4-ylmethyl)-1,3-thiazol-2-yl]-2-[(3R,5S)-3,4,5-trimethylpiperazin-1-yl]phenyl]-6-oxo-4-(trifluoromethyl)-1H-pyridine-3-carboxamide], for which the Kd is 8.27 nM. Consider `CC1CN(c2ncc(-c3cc(NC(=O)c4ccc(F)cc4C(F)(F)F)c(N4C[C@@H](C)N(C)[C@@H](C)C4)cc3F)cn2)CCO1` (stereo in doubt) [Example 453, 4-fluoro-N-[4-fluoro-5-[2-[(2R)-2-methylmorpholin-4-yl]pyrimidin-5-yl]-2-[(3S,5R)-3,4,5-trimethylpiperazin-1-yl]phenyl]-2-(trifluoromethyl)benzamide], for which the dissociation constant Kd was determined as 0.822 nM.

One may read the Kd as a measure of binding affinity in units of concentration.
